From US10428083B2, “Heterocyclylmethyl-thienouracile as antagonists of the adenosine-A2B-receptor” (BAYER PHARMA AKTIENGESELLSCHAFT, priority 2015, dated 2019)

Biological target: human adenosine A2b receptor (Homo sapiens (Human), UniProt P29275)
Test: Cellular in vitro reporter gene test for A2b receptor activity (CHO-K1, CRE-luciferase, NECA stimulation)
Type: cell-based
Conditions: recombinant CHO-K1 cell line, CRE-luciferase reporter, antagonism of EC50 concentration of NECA; in some cases means of several determinations, rounded to two significant figures; read-out: A2b receptor IC50
Procedure, shortened: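 CHO-K1 cells with CRE-driven luciferase; antagonists co-incubated with NECA at its EC50, determined in a pre-experiment on each test day. Luciferase read by luminescence 3 h after NECA addition.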

human adenosine A2b receptor, sequence (P29275 whole entry): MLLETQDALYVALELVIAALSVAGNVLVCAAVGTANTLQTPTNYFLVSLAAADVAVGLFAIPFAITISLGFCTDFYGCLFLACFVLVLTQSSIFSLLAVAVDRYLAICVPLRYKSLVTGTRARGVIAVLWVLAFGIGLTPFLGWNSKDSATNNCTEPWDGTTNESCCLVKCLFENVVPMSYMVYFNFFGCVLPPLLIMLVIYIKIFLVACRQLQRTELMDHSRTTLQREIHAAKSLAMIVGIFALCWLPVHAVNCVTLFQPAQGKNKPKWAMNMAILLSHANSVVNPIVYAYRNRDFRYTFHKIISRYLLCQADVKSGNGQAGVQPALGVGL

Row | SMILES | IC50
1 | C=CCn1cnn(Cc2sc3c(c2C)c(=O)n(CC)c(=O)n3CCOC(F)(F)F)c1=O [Example 111, 6-[(4-Allyl-5-oxo-4,5-dihydro-1H-1,2,4-triazol-1-yl)methyl]-3-ethyl-5-methyl-1-[2-(trifluoromethoxy)ethyl]thieno[2,3-d]pyrimidine-2,4(1H,3H)-dione] | 21 nM
2 | C=CCn1cnn(Cc2sc3c(c2C)c(=O)n(CC)c(=O)n3CCOC)c1=O [Example 112, 6-[(4-Allyl-5-oxo-4,5-dihydro-1H-1,2,4-triazol-1-yl)methyl]-3-ethyl-1-(2-methoxyethyl)-5-methylthieno[2,3-d]pyrimidine-2,4(1H,3H)-dione] | 500 nM
3 | CCn1c(=O)c2c(C)c(Cn3nc[nH]c3=O)sc2n(CCOC)c1=O [Example 114, 3-Ethyl-1-(2-methoxyethyl)-5-methyl-6-[(5-oxo-4,5-dihydro-1H-1,2,4-triazol-1-yl)methyl]thieno[2,3-d]pyrimidine-2,4(1H,3H)-dione] | 39 nM
4 | CCn1c(=O)c2c(C)c(CN3CCNC(=O)C3=O)sc2n(CCOC)c1=O [Example 120, 6-[(2,3-Dioxopiperazin-1-yl)methyl]-3-ethyl-1-(2-methoxyethyl)-5-methylthieno[2,3-d]pyrimidine-2,4(1H,3H)-dione] | 12 nM
5 | Cc1c(CN2CCNC(=O)C2=O)sc2c1c(=O)n(CC(C)C)c(=O)n2CCCF [Example 121, 6-[(2,3-Dioxopiperazin-1-yl)methyl]-1-(3-fluoropropyl)-3-isobutyl-5-methylthieno[2,3-d]pyrimidine-2,4(1H,3H)-dione] | 20 nM
6 | Cc1c(CN2CCNC(=O)C2=O)sc2c1c(=O)n(CC(F)(F)F)c(=O)n2C [Example 124, 6-[(2,3-Dioxopiperazin-1-yl)methyl]-1,5-dimethyl-3-(2,2,2-trifluoroethyl)thieno[2,3-d]pyrimidine-2,4(1H,3H)-dione] | 60 nM
7 | Cc1c(CN2CCNC(=O)C2=O)sc2c1c(=O)n(CC(F)F)c(=O)n2CCC(F)(F)F [Example 125, 3-(2,2-Difluoroethyl)-6-[(2,3-dioxopiperazin-1-yl)methyl]-5-methyl-1-(3,3,3-trifluoropropyl)thieno[2,3-d]pyrimidine-2,4(1H,3H)-dione] | 8.8 nM
8 | Cc1c(Cn2[nH]ccc2=O)sc2c1c(=O)n(C(C)C)c(=O)n2CCC(F)(F)F [Example 132, 3-Isopropyl-5-methyl-6-[(5-oxo-2,5-dihydro-1H-pyrazol-1-yl)methyl]-1-(3,3,3-trifluoropropyl)thieno[2,3-d]pyrimidine-2,4(1H,3H)-dione] | 20 nM
9 | COCCn1c(=O)n(C(C)C)c(=O)c2c(C)c(Cn3[nH]ccc3=O)sc21 [Example 133, 3-Isopropyl-1-(2-methoxyethyl)-5-methyl-6-[(5-oxo-2,5-dihydro-1H-pyrazol-1-yl)methyl]thieno[2,3-d]pyrimidine-2,4(1H,3H)-dione] | 26 nM
10 | CCn1c(=O)c2c(C)c(CN3CCNC3=S)sc2n(CC(F)F)c1=O [Example 137, 1-(2,2-Difluoroethyl)-3-ethyl-5-methyl-6-[(2-thioxoimidazolidin-1-yl)methyl]thieno[2,3-d]pyrimidine-2,4(1H,3H)-dione] | 10 nM
11 | CCn1c(=O)c2c(C)c(CN3CCNC3=S)sc2n(CCOC2CC2)c1=O [Example 138, 1-[2-(Cyclopropyloxy)ethyl]-3-ethyl-5-methyl-6-[(2-thioxoimidazolidin-1-yl)methyl]thieno[2,3-d]pyrimidine-2,4(1H,3H)-dione] | 12 nM
12 | CCOCCn1c(=O)n(CC(C)C)c(=O)c2c(C)c(CN3CCNC3=S)sc21 [Example 145, 1-(2-Ethoxyetyl)-3-isobutyl-5-methyl-6-[(2-thioxoimidazolidin-1-yl)methyl]thieno[2,3-d]pyrimidine-2,4(1H,3H)-dione] | 14 nM
13 | CCOCCn1c(=O)n(CC(F)(F)F)c(=O)c2c(C)c(CN3CCNC3=S)sc21 [Example 153, 1-(2-Ethoxyethyl)-5-methyl-6-[(2-thioxoimidazolidin-1-yl)methyl]-3-(2,2,2-trifluoroethyl)thieno[2,3-d]pyrimidine-2,4(1H,3H)-dione] | 6.4 nM
14 | Cc1c(CN2CCNC2=S)sc2c1c(=O)n(CC(F)(F)F)c(=O)n2C [Example 159, 1,5-Dimethyl-6-[(2-thioxoimidazolidin-1-yl)methyl]-3-(2,22-trifluoroethyl)thieno[2,3-d]pyrimidine-2,4(1H,3H)-dione] | 14 nM
15 | CCOCCn1c(=O)n(CC(F)F)c(=O)c2c(C)c(CN3CCNC3=S)sc21 [Example 161, 3-(2,2-Difluoroethyl)-1-(2-ethoxyethyl)-5-methyl-6-[(2-thioxoimidazolidin-1-yl)methyl]thieno[2,3-d]pyrimidine-2,4(1H,3H)-dione] | 8.5 nM
16 | Cc1c(CN2CCNC2=S)sc2c1c(=O)n(CC(F)F)c(=O)n2CC1COC1 [Example 165, 3-(2,2-Difluoroethyl)-5-methyl-1-(oxetan-3-ylmethyl)-6-[(2-thioxoimidazolidin-1-yl)methyl]thieno[2,3-d]pyrimidine-2,4(1H,3H)-dione] | 6.5 nM
17 | Cc1c(CN2CCNC2=S)sc2c1c(=O)n(CC(F)F)c(=O)n2C [Example 166, 3-(2,2-Difluoroethyl)-1,5-dimethyl-6-[(2-thioxoimidazolidin-1-yl)methyl]thieno[2,3-d]pyrimidine-2,4(1H,3H)-dione] | 13 nM
18 | COCCn1c(=O)c2c(C)c(CN3CCNC3=S)sc2n(CCOC)c1=O [Example 168, 1,3-Bis(2-methoxyethyl)-5-methyl-6-[(2-thioxoimidazolidin-1-yl)methyl]thieno[2,3-d]pyrimidine-2,4(1H,3H)-dione] | 15 nM

The next compounds have a lower IC50 than those just listed; values first:

Row | IC50 | SMILES
19 | 6 nM | Cc1c(CN2CCNC2=S)sc2c1c(=O)n(CC(C)(C)C)c(=O)n2CCCF [Example 150, 3-(2,2-Dimethylpropyl)-1-(3-fluoropropyl)-5-methyl-6-[(2-thioxoimidazolidin-1-yl)methyl]thieno[2,3-d]pyrimidine-2,4(1H,3H)-dione]
20 | 5.7 nM | COCCn1c(=O)n(CC(C)(C)C)c(=O)c2c(C)c(CN3CCNC3=S)sc21 [Example 151, 3-(2,2-Dimethylpropyl)-1-(2-methoxyethyl)-5-methyl-6-[(2-thioxoimidazolidin-1-yl)methyl]thieno[2,3-d]pyrimidine-2,4(1H,3H)-dione]
21 | 5.6 nM | CCn1c(=O)c2c(C)c(Cn3[nH]ccc3=O)sc2n(CCC(F)(F)F)c1=O [Example 127, 3-Ethyl-5-methyl-6-[(5-oxo-2,5-dihydro-1H-pyrazol-1-yl)methyl]-1-(3,3,3-trifluoropropyl)thieno[2,3-d]pyrimidine-2,4(1H,3H)-dione]
22 | 5.5 nM | Cc1c(CN2CCNC2=S)sc2c1c(=O)n(CC(F)(F)F)c(=O)n2CC1COC1 [Example 158, 5-Methyl-1-(oxetan-3-ylmethyl)-6-[(2-thioxoimidazolidin-1-yl)methyl]-3-(2,2,2-trifluoroethyl)thieno[2,3-d]pyrimidine-2,4(1H,3H)-dione]
23 | 5.2 nM | CCn1c(=O)c2c(C)c(CN3CCNC3=NC#N)sc2n(CCOC)c1=O [Example 117, [1-{[3-Ethyl-1-(2-methoxyethyl)-5-methyl-2,4-dioxo-1,2,3,4-tetrahydrothieno[2,3-d]pyrimidin-6-yl]methyl}imidazolidin-2-ylidene]cyanamide]
24 | 5.1 nM | Cc1c(CN2CCNC2=S)sc2c1c(=O)n(CC(C)(C)C)c(=O)n2CCC(F)(F)F [Example 149, 3-(2,2-Dimethylpropyl)-5-methyl-6-[(2-thioxoimidazolidin-1-yl)methyl]-1-(3,3,3-trifluoropropyl)thieno[2,3-d]pyrimidine-2,4(1H,3H)-dione]
25 | 4.7 nM | CCn1c(=O)c2c(C)c(Cn3[nH]ccc3=O)sc2n(CCOC)c1=O [Example 128, 3-Ethyl-1-(2-methoxyethyl)-5-methyl-6-[(5-oxo-2,5-dihydro-1H-pyrazol-1-yl)methyl]thieno[2,3-d]pyrimidine-2,4(1H,3H)-dione]
26 | 3.9 nM | Cc1c(CN2CCNC(=O)C2=O)sc2c1c(=O)n(CC(F)(F)F)c(=O)n2CCC(F)(F)F [Example 122, 6-[(2,3-Dioxopiperazin-1-yl)methyl]-5-methyl-3-(2,2,2-trifluoroethyl)-1-(3,3,3-trifluoropropyl)thieno[2,3-d]pyrimidine-2,4(1H,3H)-dione]
27 | 3.9 nM | CCn1c(=O)c2c(C)c(CN3CC[C@@H](O)C3=O)sc2n(CCC(F)(F)F)c1=O [Example 126, 3-Ethyl-6-{[(3R)-3-hydroxy-2-oxopyrrolidin-1-yl]methyl}-5-methyl-1-(3,3,3-trifluoropropyl)thieno[2,3-d]pyrimidine-2,4(1H,3H)-dione]
28 | 3 nM | Cc1c(CN2CCNC2=S)sc2c1c(=O)n(CC(C)C)c(=O)n2CC(F)F [Example 143]
29 | 2.9 nM | Cc1c(CN2CCNC2=S)sc2c1c(=O)n(CC(F)F)c(=O)n2CCC(F)(F)F [Example 160, 3-(2,2-Difluoroethyl)-5-methyl-6-[(2-thioxoimidazolidin-1-yl)methyl]-1-(3,3,3-trifluoropropyl)thieno[2,3-d]pyrimidine-2,4(1H,3H)-dione]
30 | 1.5 nM | Cc1c(CN2CCNC2=S)sc2c1c(=O)n(CC(C)C)c(=O)n2CCCF [Example 144, 1-(3-Fluoropropyl)-3-isobutyl-5-methyl-6-[(2-thioxoimidazolidin-1-yl)methyl]thieno[2,3-d]pyrimidine-2,4(1H,3H)-dione]
31 | 1.2 nM | COCCn1c(=O)c2c(C)c(CN3CCNC3=S)sc2n(CCC(F)(F)F)c1=O [Example 167, 3-(2-Methoxyethyl)-5-methyl-6-[(2-thioxoimidazolidin-1-yl)methyl]-1-(3,3,3-trifluoropropyl)thieno[2,3-d]pyrimidine-2,4(1H,3H)-dione]
32 | 0.79 nM | Cc1c(CN2CCNC2=S)sc2c1c(=O)n(CC(F)(F)F)c(=O)n2CCC(F)(F)F [Example 152, 5-Methyl-6-[(2-thioxoimidazolidin-1-yl)methyl]-3-(2,2,2-trifluoroethyl)-1-(3,3,3-trifluoropropyl)thieno[2,3-d]pyrimidine-2,4(1H,3H)-dione]
